Laboratory results as given in PMC3330828 (2012).
pIC50: −log10 of the molar value.

What was measured:
caspase-3 = molecular target: T1, caspase-3 (Homo sapiens, UniProt P42574); assay: in vitro fluorometric enzyme assay; type: biochemical
T1 sequence (P42574 29-175): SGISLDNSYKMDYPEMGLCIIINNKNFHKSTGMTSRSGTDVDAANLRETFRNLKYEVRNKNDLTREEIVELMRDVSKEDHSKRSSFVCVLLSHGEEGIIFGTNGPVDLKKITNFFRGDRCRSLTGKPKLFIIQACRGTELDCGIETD
T1 sequence (P42574 176-277): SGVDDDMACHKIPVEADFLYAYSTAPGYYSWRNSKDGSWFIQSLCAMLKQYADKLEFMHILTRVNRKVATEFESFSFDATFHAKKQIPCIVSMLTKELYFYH

caspase-1 = molecular target: T2, caspase-1 (Homo sapiens, UniProt P29466); assay: in vitro fluorometric enzyme assay; type: biochemical
T2 sequence (P29466 120-297): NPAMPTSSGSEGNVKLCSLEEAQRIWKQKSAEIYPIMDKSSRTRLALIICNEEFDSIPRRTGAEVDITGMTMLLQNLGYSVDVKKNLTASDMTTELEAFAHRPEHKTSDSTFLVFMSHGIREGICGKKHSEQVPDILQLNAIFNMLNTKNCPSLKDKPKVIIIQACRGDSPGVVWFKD
T2 sequence (P29466 317-404): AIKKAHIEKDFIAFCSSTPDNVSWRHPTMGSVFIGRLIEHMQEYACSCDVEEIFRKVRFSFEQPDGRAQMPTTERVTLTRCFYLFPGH

pIC50 (caspase-3)	pIC50 (caspase-1)	Substance
4.30	4.05	berkedrimane B [compound 2]
3.70	4.00	berkedrimane A [compound 1]
